Reference: US8809359B2, “Phenyl amino pyrimidine bicyclic compounds and uses thereof” (YM Biosciences Australia Pty Ltd, priority 2012, dated 2014)
Where two headings read alike, the source gives them in different places.

What was measured:
Assay type in all cases: biochemical
JAK2 = JAK2 (Homo sapiens, UniProt O60674); assay: Enzyme screening kinase assay, JAK2
Method: (§1) Kinase assays were performed based on the method reported by Anastassiadis, T; et al Nature Biotechnology (2011); 29 (11); p 1039-p 1045 (doi:10.1038/nbt.2017).

JAK1 = JAK1 (Homo sapiens, UniProt P23458); assay: Enzyme screening kinase assay, JAK1
JAK1, sequence (P23458 whole entry): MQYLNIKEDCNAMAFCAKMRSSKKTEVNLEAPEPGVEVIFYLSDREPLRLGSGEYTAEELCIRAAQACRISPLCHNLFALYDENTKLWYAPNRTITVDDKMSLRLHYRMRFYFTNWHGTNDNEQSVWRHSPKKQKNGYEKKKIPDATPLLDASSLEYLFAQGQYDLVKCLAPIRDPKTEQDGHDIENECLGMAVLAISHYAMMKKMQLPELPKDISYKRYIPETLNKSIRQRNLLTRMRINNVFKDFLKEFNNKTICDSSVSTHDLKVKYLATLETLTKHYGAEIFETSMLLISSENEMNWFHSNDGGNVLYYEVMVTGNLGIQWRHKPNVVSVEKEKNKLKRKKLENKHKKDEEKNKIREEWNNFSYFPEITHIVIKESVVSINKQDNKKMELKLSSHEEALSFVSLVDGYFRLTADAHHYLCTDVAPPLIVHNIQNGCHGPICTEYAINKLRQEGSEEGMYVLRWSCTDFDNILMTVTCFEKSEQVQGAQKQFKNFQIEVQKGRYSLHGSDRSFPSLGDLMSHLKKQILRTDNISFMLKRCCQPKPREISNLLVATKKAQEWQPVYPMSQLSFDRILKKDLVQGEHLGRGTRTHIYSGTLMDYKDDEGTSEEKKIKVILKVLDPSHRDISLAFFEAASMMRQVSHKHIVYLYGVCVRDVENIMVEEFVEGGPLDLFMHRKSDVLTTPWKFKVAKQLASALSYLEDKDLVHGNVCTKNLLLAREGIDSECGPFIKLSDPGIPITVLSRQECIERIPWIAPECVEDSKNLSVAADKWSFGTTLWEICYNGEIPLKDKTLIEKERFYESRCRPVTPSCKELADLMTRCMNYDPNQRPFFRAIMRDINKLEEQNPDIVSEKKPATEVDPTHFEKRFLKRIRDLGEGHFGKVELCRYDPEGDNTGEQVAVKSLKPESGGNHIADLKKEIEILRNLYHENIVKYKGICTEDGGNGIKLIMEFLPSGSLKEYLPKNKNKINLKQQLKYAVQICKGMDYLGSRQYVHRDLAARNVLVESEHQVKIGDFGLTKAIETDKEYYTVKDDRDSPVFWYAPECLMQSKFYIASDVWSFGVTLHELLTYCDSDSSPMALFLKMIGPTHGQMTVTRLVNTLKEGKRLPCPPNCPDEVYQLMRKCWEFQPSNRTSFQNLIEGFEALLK
Method: as §1

JAK3 = biological target: T1, JAK3 (Homo sapiens, UniProt P52333); assay: Enzyme screening kinase assay, JAK3
T1 sequence (P52333 1-1124): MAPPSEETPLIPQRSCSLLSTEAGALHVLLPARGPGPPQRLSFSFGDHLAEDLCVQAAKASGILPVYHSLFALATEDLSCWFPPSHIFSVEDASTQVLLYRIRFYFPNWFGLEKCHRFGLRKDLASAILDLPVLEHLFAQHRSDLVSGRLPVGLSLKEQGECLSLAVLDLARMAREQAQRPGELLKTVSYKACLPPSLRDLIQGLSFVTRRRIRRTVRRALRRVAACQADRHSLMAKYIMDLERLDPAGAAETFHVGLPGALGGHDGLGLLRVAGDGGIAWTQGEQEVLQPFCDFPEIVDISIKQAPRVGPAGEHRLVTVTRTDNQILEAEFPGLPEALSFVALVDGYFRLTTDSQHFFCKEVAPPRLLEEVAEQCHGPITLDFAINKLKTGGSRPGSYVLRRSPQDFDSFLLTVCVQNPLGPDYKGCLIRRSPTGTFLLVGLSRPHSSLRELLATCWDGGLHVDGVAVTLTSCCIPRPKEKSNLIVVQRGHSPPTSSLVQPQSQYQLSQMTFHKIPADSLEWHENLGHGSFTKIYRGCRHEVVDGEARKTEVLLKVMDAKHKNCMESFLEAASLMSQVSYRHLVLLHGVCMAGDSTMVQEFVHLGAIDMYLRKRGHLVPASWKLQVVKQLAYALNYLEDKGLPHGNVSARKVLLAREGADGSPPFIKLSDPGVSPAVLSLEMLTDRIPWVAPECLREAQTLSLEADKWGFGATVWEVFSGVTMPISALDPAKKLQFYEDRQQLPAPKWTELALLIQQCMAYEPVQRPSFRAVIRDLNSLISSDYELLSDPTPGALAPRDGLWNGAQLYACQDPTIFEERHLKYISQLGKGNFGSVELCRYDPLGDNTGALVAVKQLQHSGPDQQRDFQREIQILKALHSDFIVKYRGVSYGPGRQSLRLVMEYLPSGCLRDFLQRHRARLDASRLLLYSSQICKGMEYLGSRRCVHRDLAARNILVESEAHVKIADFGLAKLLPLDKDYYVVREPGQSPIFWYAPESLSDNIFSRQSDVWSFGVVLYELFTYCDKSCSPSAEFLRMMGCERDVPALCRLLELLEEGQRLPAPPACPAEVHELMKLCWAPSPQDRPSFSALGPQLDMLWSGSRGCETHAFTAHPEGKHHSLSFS
Method: as §1

TYK2 = TYK2 (Homo sapiens, UniProt P29597); assay: Enzyme screening kinase assay, TYK2
TYK2, sequence (P29597 whole entry): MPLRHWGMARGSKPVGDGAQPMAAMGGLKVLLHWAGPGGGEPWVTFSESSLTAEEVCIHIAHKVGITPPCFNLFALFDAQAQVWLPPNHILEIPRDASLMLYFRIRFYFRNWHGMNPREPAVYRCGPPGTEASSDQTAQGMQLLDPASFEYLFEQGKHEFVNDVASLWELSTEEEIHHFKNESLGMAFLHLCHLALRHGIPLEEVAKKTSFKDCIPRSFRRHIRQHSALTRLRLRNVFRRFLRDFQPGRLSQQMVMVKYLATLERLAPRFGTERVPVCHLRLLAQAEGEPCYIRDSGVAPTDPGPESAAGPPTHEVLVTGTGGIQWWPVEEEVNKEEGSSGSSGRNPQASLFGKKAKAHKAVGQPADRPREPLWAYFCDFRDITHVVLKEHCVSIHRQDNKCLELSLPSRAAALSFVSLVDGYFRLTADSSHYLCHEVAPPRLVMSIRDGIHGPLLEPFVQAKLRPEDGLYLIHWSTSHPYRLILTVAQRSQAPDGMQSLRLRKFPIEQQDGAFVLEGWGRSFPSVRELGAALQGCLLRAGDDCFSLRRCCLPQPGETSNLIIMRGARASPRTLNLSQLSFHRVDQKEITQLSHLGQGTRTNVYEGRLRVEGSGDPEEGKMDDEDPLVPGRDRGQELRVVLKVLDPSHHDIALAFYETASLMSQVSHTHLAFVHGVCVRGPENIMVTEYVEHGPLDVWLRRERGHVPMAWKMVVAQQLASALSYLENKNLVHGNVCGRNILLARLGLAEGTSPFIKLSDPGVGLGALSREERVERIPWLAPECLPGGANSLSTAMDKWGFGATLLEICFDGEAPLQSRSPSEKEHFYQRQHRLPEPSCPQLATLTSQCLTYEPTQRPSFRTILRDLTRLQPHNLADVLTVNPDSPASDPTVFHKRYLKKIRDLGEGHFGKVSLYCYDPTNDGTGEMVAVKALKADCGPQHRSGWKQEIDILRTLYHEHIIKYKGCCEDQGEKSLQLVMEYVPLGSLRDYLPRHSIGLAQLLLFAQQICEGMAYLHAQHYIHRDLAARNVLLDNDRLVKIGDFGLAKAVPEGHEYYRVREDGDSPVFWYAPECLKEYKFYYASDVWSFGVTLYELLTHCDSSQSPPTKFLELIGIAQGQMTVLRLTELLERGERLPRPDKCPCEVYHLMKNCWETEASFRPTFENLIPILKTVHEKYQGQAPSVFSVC
Method: as §1

[1] = Data 1, read-out: JAK2 IC50 Data 1
[2] = Data 2, read-out: JAK2 IC50 Data 2
[3] = Data 1, read-out: JAK1 IC50 Data 1
[4] = Data 2, read-out: JAK1 IC50 Data 2
[5] = Data 1, read-out: JAK3 IC50 Data 1
[6] = Data 2, read-out: JAK3 IC50 Data 2
[7] = Data 1, read-out: TYK2 IC50 Data 1
[8] = Data 2, read-out: TYK2 IC50 Data 2

JAK2, sequence (O60674 whole entry): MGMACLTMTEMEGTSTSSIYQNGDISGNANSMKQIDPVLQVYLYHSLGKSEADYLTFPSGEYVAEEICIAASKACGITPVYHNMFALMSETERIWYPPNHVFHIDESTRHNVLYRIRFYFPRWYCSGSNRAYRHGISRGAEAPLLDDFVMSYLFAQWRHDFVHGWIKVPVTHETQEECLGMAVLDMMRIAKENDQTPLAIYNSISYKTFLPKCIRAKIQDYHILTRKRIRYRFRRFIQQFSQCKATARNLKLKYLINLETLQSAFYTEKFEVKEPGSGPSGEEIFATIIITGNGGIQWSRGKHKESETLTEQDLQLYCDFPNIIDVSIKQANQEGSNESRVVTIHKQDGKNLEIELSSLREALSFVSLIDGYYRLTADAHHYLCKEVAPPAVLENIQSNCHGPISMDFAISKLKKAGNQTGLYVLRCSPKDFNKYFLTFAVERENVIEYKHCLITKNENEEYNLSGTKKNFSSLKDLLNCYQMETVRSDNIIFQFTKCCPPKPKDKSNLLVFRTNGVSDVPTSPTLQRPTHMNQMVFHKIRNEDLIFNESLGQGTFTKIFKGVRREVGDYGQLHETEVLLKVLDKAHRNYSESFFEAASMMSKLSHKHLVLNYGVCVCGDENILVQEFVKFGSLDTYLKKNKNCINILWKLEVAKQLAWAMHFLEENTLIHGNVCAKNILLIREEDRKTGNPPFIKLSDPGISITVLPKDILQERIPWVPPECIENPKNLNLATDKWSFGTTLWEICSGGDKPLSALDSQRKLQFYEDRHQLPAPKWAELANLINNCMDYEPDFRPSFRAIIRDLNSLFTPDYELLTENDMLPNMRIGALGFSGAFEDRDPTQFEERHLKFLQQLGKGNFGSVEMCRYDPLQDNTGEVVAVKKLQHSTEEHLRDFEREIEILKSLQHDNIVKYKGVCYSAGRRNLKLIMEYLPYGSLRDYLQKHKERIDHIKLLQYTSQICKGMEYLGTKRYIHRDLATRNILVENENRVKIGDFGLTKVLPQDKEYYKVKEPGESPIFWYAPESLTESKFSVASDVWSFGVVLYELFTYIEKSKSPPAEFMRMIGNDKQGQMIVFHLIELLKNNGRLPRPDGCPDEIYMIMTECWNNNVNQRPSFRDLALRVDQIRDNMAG

IC50 (JAK2; [1]) [µM]	IC50 (JAK2; [2]) [µM]	IC50 (JAK1; [3]) [µM]	IC50 (JAK1; [4]) [µM]	IC50 (JAK3; [5]) [µM]	IC50 (JAK3; [6]) [µM]	IC50 (TYK2; [7]) [µM]	IC50 (TYK2; [8]) [µM]	Compound
0.047	0.045	0.0323	0.0417	0.0801	0.0824	0.00683	0.0073	N#CCNC(=O)c1ccc(-c2ccnc(Nc3ccc(N4CC5CC(C4)O5)cc3)n2)cc1 [Compound 3, 4-(2-((4-(6-oxa-3-azabicyclo[3.1.1]heptan-3-yl)phenyl)amino)pyrimidin-4-yl)-N-(cyanomethyl)benzamide]
0.0293	0.0291	0.0288	0.0286	0.0923	0.0808	0.00522	0.00617	N#CCNC(=O)c1ccc(-c2ccnc(Nc3ccc(N4CC5CCC(C4)O5)cc3)n2)cc1 [Compound 4, 4-(2-((4-(8-oxa-3-azabicyclo[3.2.1]octan-3-yl)phenyl)amino)pyrimidin-4-yl)-N-(cyanomethyl)benzamide]
0.0111	0.0134	0.0224	0.0217	0.0128	0.014	0.00807	0.0074	N#CCNC(=O)c1ccc(-c2ccnc(Nc3ccc(N4C[C@@H]5C[C@H]4CO5)cc3)n2)cc1 [Compound 9, 4-(2-((4-((1S,4S)-2-oxa-5-azabicyclo[2.2.1]heptan-5-yl)phenyl)amino)pyrimidin-4-yl)-N-(cyanomethyl)benzamide]
0.017	0.0168	0.016	0.0159	0.0221	0.027	0.00431	0.00258	N#CCNC(=O)c1ccc(-c2ccnc(Nc3ccc(N4C[C@H]5C[C@@H]4CO5)cc3)n2)cc1 [Compound 10, 4-(2-((4-((1R,4R)-2-oxa-5-azabicyclo[2.2.1]heptan-5-yl)phenyl)amino)pyrimidin-4-yl)-N-(cyanomethyl)benzamide]

Further lines, the compound ahead of its results:

Compound	IC50 (JAK2; [1]) [µM]	IC50 (JAK2; [2]) [µM]	IC50 (JAK1; [3]) [µM]	IC50 (JAK1; [4]) [µM]	IC50 (JAK3; [5]) [µM]	IC50 (JAK3; [6]) [µM]	IC50 (TYK2; [7]) [µM]	IC50 (TYK2; [8]) [µM]
N#CCNC(=O)c1ccc(-c2ccnc(Nc3ccc(N4CC5(CCO5)C4)cc3)n2)cc1 [Compound 1, 4-(2-((4-(1-oxa-6-azaspiro[3.3]heptan-6-yl)phenyl)amino)pyrimidin-4-yl)-N-(cyanomethyl)benzamide]	0.108	0.103	0.225	0.215	0.213	0.194	0.038	0.035
N#CCNC(=O)c1ccc(-c2ccnc(Nc3ccc(N4CCC5(CCO5)CC4)cc3)n2)cc1 [Compound 2, 4-(2-((4-(1-oxa-7-azaspiro[3.5]nonan-7-yl)phenyl)amino)pyrimidin-4-yl)-N-(cyanomethyl)benzamide]	0.0222	0.0245	0.0306	0.0379	0.0418	0.0448	0.00509	0.00565
N#CCNC(=O)c1ccc(-c2ccnc(Nc3ccc(N4CCC[C@]5(CCO5)C4)cc3)n2)cc1 [Compound 5, (S)-4-(2-((4-(1-oxa-6-azaspiro[3.5]nonan-6-yl)phenyl)amino)pyrimidin-4-yl)-N-(cyanomethyl)benzamide]	0.03	0.0259	0.0101	0.0102	0.0609	0.0563	0.00069	0.00091
N#CCNC(=O)c1ccc(-c2ccnc(Nc3ccc(N4CCC[C@@]5(CCO5)C4)cc3)n2)cc1 [Compound 6, (R)-4-(2-((4-(1-oxa-6-azaspiro[3.5]nonan-6-yl)phenyl)amino)pyrimidin-4-yl)-N-(cyanomethyl)benzamide]	0.0142	0.0141	0.0175	0.0198	0.0334	0.0327	0.00294	0.00214
N#CCNC(=O)c1ccc(-c2ccnc(Nc3ccc(N4CC[C@]5(CCO5)C4)cc3)n2)cc1 [Compound 7, (S)-4-(2-((4-(1-oxa-6-azaspiro[3.4]octan-6-yl)phenyl)amino)pyrimidin-4-yl)-N-(cyanomethyl)benzamide]	0.0303	0.034	0.0315	0.0292	0.0609	0.0508	0.00487	0.00429
N#CCNC(=O)c1ccc(-c2ccnc(Nc3ccc(N4CC[C@@]5(CCO5)C4)cc3)n2)cc1 [Compound 8, (R)-4-(2-((4-(1-oxa-6-azaspiro[3.4]octan-6-yl)phenyl)amino)pyrimidin-4-yl)-N-(cyanomethyl)benzamide]	0.0435	0.0464	0.0569	0.0357	0.0793	0.0785	0.00998	0.00998
N#CCNC(=O)c1ccc(-c2ccnc(Nc3ccc(N4CC5(COC5)C4)cc3)n2)cc1 [Compound 11, 4-(2-((4-(2-oxa-6-azaspiro[3.3]heptan-6-yl)phenyl)amino)pyrimidin-4-yl)-N-(cyanomethyl)benzamide]	0.0106	0.0108	0.0328	0.0474	0.0338	0.0263	0.00947	0.00854
